Results taken from patent publication US11089783B2, “2-(het)aryl-substituted fused heterocycle derivatives as pesticides” (Bayer Aktiengesellschaft, priority 2017, dated 2021).

Key:
Format in all cases: in vivo
Lucilia cuprina = Lucilia cuprina test; conditions: 48 h, L1 larvae, after 2 days, read-out: efficacy (kill)
Method: Solvent: dimethyl sulfoxide To produce a suitable active ingredient formulation, 10 mg of active ingredient are mixed with 0.5 ml of dimethyl sulfoxide, and the concentrate is diluted with water to the desired concentration. About 20 L1 larvae of the Australian sheep blowfly (Lucilia cuprina) are transferred into a test vessel containing minced horsemeat and the active ingredient formulation of the desired concentration. After 2 days, the kill in % is determined. 100% means that all the larvae have been killed; 0% means that no larvae have been killed.

Musca domestica = Musca domestica test; conditions: 100 ppm, adult houseflies, after 2 days
Method: Solvent: dimethyl sulfoxide To produce a suitable active ingredient formulation, 10 mg of active ingredient are mixed with 0.5 ml of dimethyl sulfoxide, and the concentrate is diluted with water to the desired concentration. Vessels containing a sponge treated with sugar solution and the active ingredient formulation of the desired concentration are populated with 10 adult houseflies (Musca domestica). After 2 days, the kill in % is determined. 100% means that all of the flies have been killed; 0% means that none of the flies have been killed.

Myzus persicae [1] = assay: Myzus persicae oral test; conditions: 120 h, after 5 days, read-out: efficacy
Method: [table] To produce a suitable active ingredient formulation, 1 part by weight of active ingredient is dissolved with the stated parts by weight of solvent and made up to the desired concentration with water. 50 μl of the active ingredient preparation are transferred into microtitre plates and made up to a final volume of 200 μl with 150 μl of IPL41 insect medium (33%+15% sugar). Subsequently, the plates are sealed with parafilm, which a mixed population of green peach aphids (Myzus persicae) within a second microtitre plate is able to puncture and imbibe the solution. After 5 days, the efficacy in % is determined. 100% means that all the aphids have been killed; 0% means that no aphids have been killed.

Myzus persicae [2] = assay: Myzus persicae spray test (MYZUPE), Chinese cabbage leaf discs; conditions: Myzus persicae, foliar, 120 h
Method: (§1) [table] To produce a suitable active ingredient formulation, 1 part by weight of active ingredient is dissolved with the specified parts by weight of solvent and made up to the desired concentration with water containing an emulsifier concentration of 1000 ppm. To produce further test concentrations, the formulation is diluted with emulsifier-containing water. Discs of Chinese cabbage leaves (Brassica pekinensis) infested by all stages of the green peach aphid (Myzus persicae) are sprayed with an active ingredient formulation of the desired concentration. After 5 days, the efficacy in % is determined. 100% means that all the aphids have been killed; 0% means that no aphids have been killed. [table] To produce an appropriate active ingredient formulation, 1 part by weight of active ingredient is dissolved with the stated parts by weight of solvent and made up with water containing an emulsifier concentration of 1000 ppm until the desired concentration is attained. For production of further test concentrations, the mixture is diluted with emulsifier-containing water. Discs of chinese cabbage leaves (Brassica pekinensis) infested by all stages of the green peach aphid (Myzus persicae) are sprayed with an active ingredient formulation of the desired concentration. After the desired time, the efficacy in % is determined. 100% means that all aphids have been killed; 0% means that no aphids have been killed.

Phaedon cochleariae = Phaedon cochleariae spray test (PHAECO), Chinese cabbage leaf discs; conditions: Phaedon cochleariae, foliar, 168 h; for pest or weed control at 100 g/ha: 7 days (7 dat), read-out: efficacy
Method: as §1, with “pekinensis)” for “pekinensis) infested by all stages of the green peach aphid (Myzus persicae)”, “concentration and, after drying, populated with larvae of the mustard beetle (Phaedon cochleariae).” for “concentration.”, “7” for “5”, “beetle larvae” for “aphids”

Ctenocephalides felis [3] = assay: Ctenocephalides felis in vitro contact test with adult cat fleas; conditions: 5 μg/cm^2 (=500 g/ha), after 48 h
Method: For the coating of the test tubes, 9 mg of active ingredient are first dissolved in 1 ml of acetone p.a. and then diluted to the desired concentration with acetone p.a. 250 μl of the solution are distributed homogeneously on the inner walls and the base of a 25 ml glass tube by turning and rocking on an orbital shaker (rocking rotation at 30 rpm for 2 h). With 900 ppm of active ingredient solution and internal surface area 44.7 cm^2, given homogeneous distribution, an area-based dose of 5 μg/cm^2 is achieved. After the solvent has evaporated off, the tubes are populated with 5-10 adult cat fleas (Ctenocephalides felis), sealed with a perforated plastic lid and incubated in a horizontal position at room temperature and ambient humidity. After 48 h, efficacy is determined. To this end, the tubes are stood upright and the fleas are knocked to the base of the tube. Fleas which remain motionless at the base or move in an uncoordinated manner are considered to be dead or moribund. […] 100% efficacy means that all the fleas were dead or moribund. 0% efficacy means that no fleas were harmed.

Ctenocephalides felis [4] = assay: Ctenocephalides felis oral test; conditions: 100 ppm, after 2 days
Method: Solvent: dimethyl sulfoxide To produce a suitable active ingredient formulation, 10 mg of active ingredient are mixed with 0.5 ml of dimethyl sulfoxide. Dilution with citrated cattle blood gives the desired concentration. About 20 unfed adult cat fleas (Ctenocephalides felis) are placed into a chamber which is closed at the top and bottom with gauze. A metal cylinder whose bottom end is closed with parafilm is placed onto the chamber. The cylinder contains the blood/active ingredient formulation, which can be imbibed by the fleas through the parafilm membrane. After 2 days, the kill in % is determined. 100% means that all of the fleas have been killed; 0% means that none of the fleas have been killed.

Aphis gossypii = Aphis gossypii spray test (APHIGO), cotton plants; conditions: Aphis gossypii, 144 h, 20 ppm, 6 dat, read-out: % efficacy
Method: (§2) [table] To produce an appropriate active ingredient formulation, 1 part by weight of active ingredient is dissolved with the specified parts by weight of solvent and made up with water containing an emulsifier concentration of 1000 ppm until the desired concentration is attained. To produce further test concentrations, the mixture is diluted with emulsifier-containing water. If addition of ammonium salts or/and penetrants is required, these are each added to the preparation solution in a concentration of 1000 ppm. Cotton plants (Gossypium hirsutum) severely infested by the cotton aphid (Aphis gossypii) are sprayed with an active ingredient formulation of the desired concentration. After the desired time, the kill in % is determined. 100% means that all aphids have been killed; 0% means that no aphids have been killed.

Myzus persicae [5] = assay: Myzus persicae drench test (MYZUPE D), savoy cabbage plants; conditions: soil, 240 h, 10 dat, read-out: % efficacy
Method: [table] To produce an appropriate active ingredient formulation, 1 part by weight of active ingredient is mixed with the specified amounts of solvent and emulsifier and the concentrate is diluted to the desired concentration with water, it being necessary to take into account the volume of soil into which drenching is effected. It should be ensured that a concentration of 40 ppm of emulsifier in the soil is not exceeded. For production of further test concentrations, the mixture is diluted with water. Savoy cabbage plants (Brassica oleracea) in soil pots, infested by all stages of the green peach aphid (Myzus persicae), are drenched with an active ingredient formulation of the desired concentration. After the desired time, the efficacy in % is determined. 100% means that all the aphids have been killed; 0% means that no aphids have been killed.

Nezara viridula = Nezara viridula spray test (NEZARA / NEZAVI); conditions: Nezara viridula, 96 h, 4 dat, read-out: % efficacy
Method: as §2, with “ppm. Barley” for “ppm. Cotton”, “plants (Hordeum vulgare) infected with larvae of” for “plants (Gossypium hirsutum) severely infested by”, “the southern green shield bug (Nezara viridula)” for “the cotton aphid (Aphis gossypii)”, “the efficacy” for “the kill”, “all bugs” for “all aphids”, “no bugs” for “no aphids”

Meloidogyne incognita = Meloidogyne incognita test (MELGIN); conditions: Meloidogyne incognita, 336 h, 14 days (14 dat), read-out: efficacy (nematicidal, gall formation)
Method: [table] To produce a suitable active ingredient formulation, 1 part by weight of active ingredient is mixed with the stated amount of solvent and the concentrate is diluted to the desired concentration with water. Vessels are filled with sand, active ingredient solution, an egg/larvae suspension of the southern root-knot nematode (Meloidogyne incognita) and lettuce seeds. The lettuce seeds germinate and the plants develop. The galls develop on the roots. After 14 days, the nematicidal efficacy in % is determined by the formation of galls. 100% means that no galls were found; 0% means that the number of galls on the treated plants corresponds to the untreated control. [table] To produce an appropriate active ingredient formulation, 1 part by weight of active ingredient is mixed with the specified amount of solvent and the concentrate is diluted to the desired concentration with water. Vessels are filled with sand, active ingredient solution, an egg/larvae suspension of the southern root-knot nematode (Meloidogyne incognita) and lettuce seeds. The lettuce seeds germinate and the plants develop. The root-knots develop on the roots. After the desired time, the nematicidal effect is determined from the formation of root-knots in %. 100% means that no root-knots were found; 0% means that the number of root-knots on the treated plants corresponds to that on the untreated control.

Tetranychus urticae = Tetranychus urticae spray test, OP-resistant (TETRUR); conditions: Tetranychus urticae, 144 h; TETRUR, 100 g/ha, 6 dat; read-out: % efficacy
Method: [table] To produce a suitable active ingredient formulation, 1 part by weight of active ingredient is dissolved with the specified parts by weight of solvent and made up to the desired concentration with water containing an emulsifier concentration of 1000 ppm. To produce further test concentrations, the formulation is diluted with emulsifier-containing water. Discs of bean leaves (Phaseolus vulgaris) infested with all stages of the greenhouse red spider mite (Tetranychus urticae) are sprayed with an active ingredient formulation of the desired concentration. After 6 days, the efficacy in % is determined. 100% means that all the spider mites have been killed; 0% means that no spider mites have been killed.

Myzus persicae [6] = assay: Myzus persicae spray test (MYZUPE S), bell pepper plants; conditions: 144 h, 6 dat, read-out: % efficacy
Method: [table] To produce an appropriate active ingredient formulation, 1 part by weight of active ingredient is dissolved with the specified parts by weight of solvent and made up with water containing an emulsifier concentration of 1000 ppm until the desired concentration is attained. To produce further test concentrations, the mixture is diluted with emulsifier-containing water. If addition of ammonium salts or/and penetrants is required, these are each added to the preparation solution in a concentration of 1000 ppm. Bell pepper plants (Capsicum annuum) severely infested by the green peach aphid (Myzus persicae) are treated by spraying with the active ingredient formulation in the desired concentration. After the desired time, the kill in % is determined. 100% means that all the animals have been killed; 0% means that no animals have been killed.

[7] = 5 days (5 dat), read-out: efficacy

Compound | pest or weed control at 100 ppm (Lucilia cuprina) [%] | pest or weed control at 0.8 ppm (Myzus persicae [1]) [%] | pest or weed control at 100 g/ha (Myzus persicae [2]; [7]) [%] | pest or weed control at 100 g/ha (Phaedon cochleariae) [%] | efficacy (Ctenocephalides felis [3]) [%] | efficacy (kill) (Ctenocephalides felis [4]) [%] | percent efficacy (larval mortality) at a fixed application rate at 20 g/ha (Phaedon cochleariae; PHAECO, 20 g/ha, 7 dat) [%] | further results
CCNC(=O)c1ccc(S(=O)(=O)CC)c(-c2nc3cc(C(F)(F)C(F)(F)F)nnc3n2C)n1 [Example I-04, N-ethyl-5-(ethylsulfonyl)-6-[7-methyl-3-(pentafluoroethyl)-7H-imidazo[4,5-c]pyridazin-6-yl]pyridine-2-carboxamide] | 100 | 100 | 100 | 100 | – | – | – | efficacy (kill) (Musca domestica): 80%
CNC(=O)Nc1ccc(S(C)(=O)=O)c(-c2nc3cc(C(F)(F)C(F)(F)F)nnc3n2C)n1 [Example I-11] | 100 | 100 | – | 100 | 100 | 100 | – | Emax at 20 g/ha (Phaedon cochleariae; PHAECO, 20 g/ha, 7 dat, read-out: % efficacy): 83%; Emax at 20 ppm (Aphis gossypii): 95%; Emax at 0.8 ppm (Myzus persicae [5]; 0.8 ppm): 95%; Emax at 4 ppm (Myzus persicae [5]; 4 ppm): 98%; Emax at 20 g/ha (Nezara viridula; 20 g/ha): 100%
CN(C)C(=O)Nc1ccc(S(C)(=O)=O)c(-c2nc3cc(C(F)(F)C(F)(F)F)nnc3n2C)n1 [Example I-12] | 100 | 100 | 90 | 100 | 100 | 100 | 100 | pest or weed control at 20 ppm (Meloidogyne incognita): 100%; pest or weed control at 20 g/ha (Myzus persicae [2]; 20 g/ha, 5 days (5 dat), read-out: efficacy): 90%
CCS(=O)(=O)c1ccc(N(C)C(=O)NC)nc1-c1nc2cc(C(F)(F)F)nnc2n1C [reference compound] | – | – | – | – | – | – | 33 | Emax at 4 g/ha (Myzus persicae [2]; MYZUPE, 4 g/ha, 5 dat, read-out: % efficacy): 0%; Emax at 4 g/ha (Phaedon cochleariae; PHAECO, 4 g/ha, 7 dat, read-out: % efficacy): 0%; Emax at 100 g/ha (Tetranychus urticae): 0%; Emax at 0.16 ppm (Myzus persicae [6]; 0.16 ppm): 20%; Emax at 0.8 ppm (Myzus persicae [6]; 0.8 ppm): 65%; Emax at 0.16 ppm (Myzus persicae [5]; 0.16 ppm): 0%; Emax at 4 g/ha (Nezara viridula; 4 g/ha): 0%
